Key:
Assay type in all cases: biochemical, HIV-1
[1] = molecular target: T1, HIV reverse transcriptase (HIV RT) (Human immunodeficiency virus type 1 group M subtype B, UniProt P03366); experiment: Single nucleotide incorporation by HIV RT, gel-based, P1/T1 (Examples 2-3); settings: single nucleotide incorporation, FIG. 4
T1 construct: HIV RT polymerase was purchased from GE Healthcare; purchased GE Healthcare (Amersham Bioscience)
Description: A typical single nucleotide incorporation and primer extension assays using HIV RT polymerase was carried out similar to one described in the literature. HIV RT polymerase was purchased from GE Healthcare and was supplied as either 12 or 30 U/μL stock solution. The final concentration of HIV RT in a reaction mixture was 0.03-0.003 U/μL. A primer/template duplex mixture was prepared by combining appropriate amounts of a 5′-^33P-labeled primer (P1) and a template in 1:2 molar ratio to provide a 4× solution with 0.5 μM primer concentration. The polymerase reactions were carried out in a 5×RT buffer containing 250 mM TRIS.HCL, 250 mM KCl, 50 mM MgCl2, 2.5 mM spermidine, 50 mM DTT, pH 8.3. For the single nucleotide incorporation assay, a P1/T1 primer-template pair was used whereas the primer extension study was performed with P1/T3 and P1/T5 primer-template pairs.
Briefly, a mixture containing 5 μL of the 4× primer/DNA duplex solution and 5 μL of 4× polymerase solution was pre-incubated at 37° C. for 2 minutes to ensure formation a DNA polymerase/DNA duplex complex. Simultaneously, 2× solutions of dNTP to provide final concentrations of 100 μM, 200 μM, 500 μM and 1 mM were also pre-incubated at 37° C. for 2 minutes as well. The polymerase reaction in a total volume of 20 μL was initiated by addition of 10 μL of the 2× dNTP solution to the DNA polymerase/DNA duplex mixture. The reactions were run at 37° C. and aliquots (2.5 μL) were removed at specified time points and mixed with 10 μL of a quenching buffer containing 80% formamide, 2 mM EDTA, 1×TBE. Quenched reactions were analyzed by loading 2 μL of a reaction sample onto a 20% denaturing polyacrylamide:gel (19:1 acrylamide:bisacrylamide, 7M urea, 0.4 mm×30 cm×40 cm) made in 1×TBE buffer (90 mM Tris-borate, 2 mM EDTA, pH 8.3). The gel was pre-equilibrated for 2 hours before loading and the reactions were run along with a tracking dye marker containing bromophenol blue (BB) and xylene cyanol (XC) until the BB dye had run ⅔ of the total gel length. For visualization, gels were scanned using a Cyclone Phosphoroimager.

[2] = molecular target: T2, HIV reverse transcriptase (Human immunodeficiency virus type 1 group M subtype B, UniProt P03366); experiment: Gel-based single-nucleotide-incorporation and control assays with HIV RT (Example 4); settings: for conversion to a n+1 strand: 60 min, 500 μM nucleotide concentration, P1T2 (9), P1T4 (10), P2T4 (11); for control experiment with a mismatch sequence: A against A P1T4 (12), G against A P1T4 (9), T against C P1T2 (10), C against T P1T1 (11); for incorporation with blunt ended duplex: primer P1, template A
T2 construct: performed for the enzyme HIV reverse transcriptase (GE Healthcare, 30 U/4 stock solution); purchased GE Healthcare
Description: End-labeled primers were annealed to their template by combining primer and templates in a molar ratio of 1:2 and heating the mixture to 70° C. for 10 minutes, followed by slow cooling to room temperature over a period of 2.5 hours. For the incorporation of L-Asp-dGMP (9), L-Asp-dTMP (10), L-Asp-dCMP (11), and N-Me-Asp-dAMP (12) (see FIG. 13), the primer P1 was annealed to templates T1, T2, T4 or A and P2 was annealed to T4. A series of 20 μL reactions was performed for the enzyme HIV reverse transcriptase (GE Healthcare, 30 U/4 stock solution). The final mixture contained 125 nM primer-template complex, RT buffer (250 mM TrisHCl, 250 mM KCl, 50 mM MgCl2, 2.5 mM spermidine, 50 mM DTT, pH 8.3), 0.03 U/μL HIV RT and different amino acid phosphoramidates building blocks concentrations. In the control reaction with the natural nucleotide, 10 μM or 50 μM dGTP, dTTP, dATP or dCTP were used. The mixture was incubated at 37° C. […] and aliquots were quenched after 5, 10, 20, 30, 60 and 120 minutes respectively.
(§1) All polymerase reactions (3 μL) were quenched by the addition of 10 μL of loading buffer (90% formamide, 0.05% bromophenol blue, 0.05% xylene cyanol and 50 mM EDTA). Samples were heated at 70° C. for 5 minutes prior to analysis by electrophoresis for 2-3 hours at 2000 V on a 0.4 mm 20% denaturing gel in the presence of a 100 mM Tris-borate, 2.5 mM EDTA buffer, pH 8.3. Products were visualized by phosphor imaging. The amount of radioactivity in the bands corresponding to the products of enzymatic reactions was determined by using the Optiquant image analysis software (Perkin Elmer).

[3] = molecular target: T2, HIV reverse transcriptase; experiment: Steady-state kinetic assay of Asp-dNMP incorporation by HIV RT (Example 4); settings: 37° C.; P1-T2, P1-T4 or P2T4
Description: To determine the kinetic parameters of the incorporation of Asp-dGMP (9), Asp-dTMP (10), Asp-dCMP (11) or dGTP, dTTP, dCTP, a steady-state kinetic assay was carried out. The reaction mixture was started by adding HIV reverse transcriptase to P1-T2, P1-T4 or P2T4 complex, buffer and Asp-dGMP, Asp-dTMP, Asp-dCMP or dGTP, dTTP, dCTP. The final mixture (20 μL) contained 0.015 or 0.0075 U/μL HIV reverse transcriptase, buffer, 125 nM primer-template complex and various concentrations of Asp-dNMP or dNTP. A concentration range of 0.01-1 mM was used for Asp-dNPM and a concentration range of 0.1-10 μM was used for dNTP. Reactions were incubated at 37° C. Reaction times were between 1 and 120 minutes. The kinetic constants Vmax and KM were determined from a Michaëlis-Menten plot, using GraphPad Prism version 3.02.
as §1

[4] = molecular target: T2, HIV reverse transcriptase; experiment: Gel-based single-nucleotide-incorporation and control assays with HIV RT (Example 4); settings: P1/T2, compound 9 alone
[5] = molecular target: T3, HIV RT (Human immunodeficiency virus type 1 group M subtype B, UniProt P03366); experiment: Steady state kinetics of single nucleotide incorporation by HIV RT (P1/T1); settings: P1/T1, 37° C.
T3 construct: HIV RT polymerase was purchased from GE Healthcare; purchased GE Healthcare (Amersham Bioscience)
Description: The steady steate kinetics of a single nucleotide incorporation of an amino acid phosphoramidate (AA-dAMP) and of a natural nucleoside triphosphate (dATP) was determined by the gel-based polymerase assay. In all the experiments, the template T1 and the primer P1 were used (Table 1). The primer and template in 1:2 molar ratio were hybridized in a buffer containing 20 mM TRIS.HCl, 10 mM KCl, 2 mM MgSO4, 0.1% Triton X-100, pH 8.8 and used in an amount to provide 125 nM concentration of the primer in each 12 μL reaction. The range of concentrations for amino acid phosphoramidates was optimized according to a Km value for the incorporation of an individual nucleotide. In the case of HIV RT (Amersham Bioscience (GE Healthcare), 30 U/μL), reaction mixtures containing the enzyme in concentration to attain 5-20% conversion and appropriate substrate concentration (nucleoside phosphoramidate or natural dNTP) were incubated at 37° C. and run for 8-10 different time intervals. Kinetic analysis of single nucleotide incorporation by Therminator DNA polymerase (NEB, 2 U/μL) was performed similarly except the incubations and polymerase reactions, which were carried out at 70° C. To prevent solvent condensation/evaporation, the reaction mixtures were topped with mineral oil. The reactions were quenched by addition of the buffer containing 80% formamide, 2 mM EDTA, 1×TBE buffer. The analysis of polymerase reactions was performed by polyacrylamide gel electrophoresis (20% (19:1 mono:bis), 7M urea, 30 cm×40 cm×0.4 mm). The relative band intensities were measured using OptiQuant software. The rates of incorporation (V) were calculated based on the percentage of the extension production (n+1 band). The kinetic parameters (Vmax and Km) were determined by plotting V (pmol/min·U) versus substrate concentration and fitting the data point to a rectangular hyperbola using GraphPad Prism software.

SMILES | conversion to a n+1 strand [2] [%] | control experiment with a mismatch sequence [2] | incorporation with blunt ended duplex [2] | Km [3] [µM] | Vmax [3] [pmolmin^−1U] | other results
CC(NP(=O)(O)OC[C@H]1O[C@@H](n2cnc3c(N)ncnc32)C[C@@H]1O)C(=O)O (some centres unmarked) [Compound 4, 2′-deoxy-adenosine-5′-alanyl-phosphoramidate] | – | – | – | – | – | fold reduction in primer extension [1]: 7 fold
Nc1nc2c(ncn2[C@H]2C[C@H](O)[C@@H](COP(=O)(O)N[C@@H](CC(=O)O)C(=O)O)O2)c(=O)[nH]1 [Compound 9, 2′-Deoxyguanosine-5′-aspartyl phosphoramidate] | 92 | primer elongation was not observed | none of these compounds incorporated at all | 169 ± 27.9 | 2.143 ± 0.13 | n+1 conversion (incorporation) ([4]; 4 hours (same as at 2 hours)): 95%; misincorporation ([4]; four hours): no misincorporation was observed
Cc1cn([C@H]2C[C@H](O)[C@@H](COP(=O)(O)N[C@@H](CC(=O)O)C(=O)O)O2)c(=O)[nH]c1=O [Compound 10, 2′-Deoxythymidine-5′-aspartyl phosphoramidate] | 95 | primer elongation was not observed | none of these compounds incorporated at all | 288 ± 61.7 | 2.33 ± 0.22 | –
Nc1ccn([C@H]2C[C@H](O)[C@@H](COP(=O)(O)N[C@@H](CC(=O)O)C(=O)O)O2)c(=O)n1 [Compound 11, 2′-Deoxycytidine-5′-aspartyl phosphoramidate] | 82 | primer elongation was not observed | none of these compounds incorporated at all | 131 ± 19.8 | 0.59 ± 0.04 | –
CN(C(CC(=O)O)C(=O)O)P(=O)(O)OC[C@H]1O[C@@H](n2cnc3c(N)ncnc32)C[C@@H]1O (some centres unmarked) [Compound 12, 2′-Deoxyadenosine-5′-N-methylaspartyl phosphoramidate] | – | misincorporated against adenine | – | – | – | base-pairing selectivity of incorporation ([2]; P1/T1): without base-pairing selectivity; substrate quality for HIV-RT ([2]; P1/T1): good substrate
Nc1ncnc2c1ncn2[C@H]1C[C@H](O)[C@@H](COP(=O)(O)OP(=O)(O)OP(=O)(O)O)O1 [dATP, reference compound] | – | – | – | – | – | Km [5]: 0.46 ± 0.15 µM; Vmax [5]: 8.39 ± 0.82 pmol/min · U
Nc1ccn([C@H]2C[C@H](O)[C@@H](COP(=O)(O)OP(=O)(O)OP(=O)(O)O)O2)c(=O)n1 [dCTP, reference compound] | – | – | – | 3.74 ± 0.95 | 5.62 ± 0.80 | –
Nc1nc2c(ncn2[C@H]2C[C@H](O)[C@@H](COP(=O)(O)OP(=O)(O)OP(=O)(O)O)O2)c(=O)[nH]1 [dGTP, reference compound] | – | – | – | 0.54 ± 1.55 | 28.81 ± 1.55 | –
Cc1cn([C@H]2C[C@H](O)[C@@H](COP(=O)(O)OP(=O)(O)OP(=O)(O)O)O2)c(=O)[nH]c1=O [dTTP, reference compound] | – | – | – | 0.53 ± 0.07 | 30.82 ± 1.44 | –

Reference: US8242087B2, “Phosphate modified nucleosides useful as substrates for polymerases and as antiviral agents” (priority 2007, dated 2012)
